Test results from patent publication US20260345619A1 (Principia Biopharma Inc., priority 2023, published 2026).

Experiments:
[1] = Time to LOAC post-randomization (Cox regression, Kaplan-Meier); assay type: in vivo, human
Description: Time to LOAC post-randomization was to be analyzed using a Cox regression model with treatment (Cox 1972), baseline IgE strata, and region (pooled country) as covariates. The Kaplan-Meier (KM) method was to be used to estimate the probabilities of the event at specific time points for each treatment group (Kaplan and Meier 1958). Nominal p-value from log-rank test stratified by baseline IgE strata and region was also to be provided.

[2] = target: tyrosine protein kinase TEC; settings: cited from earlier work
[3] = tested on: bone marrow tyrosine kinase on chromosome X (BMX); settings: cited from earlier work
[4] = healthy volunteers (N=51), even at supratherapeutic doses; cited from earlier work
[5] = 400 mg BID cohort, N = 32, mITT
[6] = 400 mg TID cohort, N = 64, mITT

Structure (SMILES): CC(C)(C=C(C#N)C(=O)N1CCC[C@@H](n2nc(-c3ccc(Oc4ccccc4)cc3F)c3c(N)ncnc32)C1)N1CCN(C2COC2)CC1 (mixture of isomers) [rilzabrutinib, (R)-2-[3-[4-amino-3-(2-fluoro-4-phenoxy-phenyl)pyrazolo[3,4-d]pyrimidin-1-yl]piperidine-1-carbonyl]-4-methyl-4-[4-(oxetan-3-yl)piperazin-1-yl]pent-2-enenitrile]
- Number of participants censored [1, 5]: 20
- Number of participants with LOAC (time-to-LOAC analysis) [1, 5]: 12
- Percentage of participants censored [1, 5]: (62.5)
- Percentage of participants with LOAC (time-to-LOAC analysis) [1, 5]: (37.5)
- Probability of LOAC at Week 4 ([1]; 400 mg BID cohort, mITT, 95% CI (0.059, 0.309)): 0.161
- Probability of LOAC at Week 9 ([1]; 400 mg BID cohort, mITT, 95% CI (0.125, 0.429)): 0.265
- Probability of LOAC at Week 12 ([1]; 400 mg BID cohort, mITT, 95% CI (0.243, 0.607)): 0.432
- HR vs. placebo, time to LOAC ([1]; 400 mg BID cohort, mITT, 95% CI (0.352, 1.595)): 0.750
- Q1 of time to LOAC ([1]; 400 mg BID cohort, mITT, 95% CI (19.0, 84.0)): 55.0 days
- Number of participants censored [1, 6]: 52
- Number of participants with LOAC (time-to-LOAC analysis) [1, 6]: 12
- Percentage of participants censored [1, 6]: (81.3)
- Percentage of participants with LOAC (time-to-LOAC analysis) [1, 6]: (18.8)
- Probability of LOAC at Week 4 ([1]; 400 mg TID cohort, mITT, 95% CI (0.001, 0.080)): 0.017
- Probability of LOAC at Week 9 ([1]; 400 mg TID cohort, mITT, 95% CI (0.077, 0.261)): 0.156
- Probability of LOAC at Week 12 ([1]; 400 mg TID cohort, mITT, 95% CI (0.117, 0.325)): 0.211
- HR vs. placebo, time to LOAC ([1]; 400 mg TID cohort, mITT, 95% CI (0.327, 1.408)): 0.679
- IC50 [2]: 0.8 nM
- IC50 [3]: 1 nM
- effect on cardiac repolarization [4]: does not exert clinically relevant effects on cardiac repolarization
